Values of other authors, collected in patent publication US7160886B2, “Acylated piperazine derivatives as melanocortin-4 receptor agonists” (Merck & Co., Inc., priority 2003, dated 2007).

System: men with erectile dysfunction
Details: for duration of effect / onset of action: after an oral dose; for patients in whom effective / adequate response: oral

Compound	duration of effect	onset of action [min]	patients in whom effective / adequate response
Cc1ccc(N(CC2=NCCN2)c2cccc(O)c2)cc1 [phentolamine]	2 h	5 to 30	35–40%
CCCc1nn(C)c2c(=O)[nH]c(-c3cc(S(=O)(=O)N4CCN(C)CC4)ccc3OCC)nc12 [sildenafil]	about 4 hours	30 to 60	about 70%
